From ChEMBL document CHEMBL3580628, “Introduction of polar groups on the naphthalene scaffold of molecular tongs inhibiting wild-type and mutated HIV-1 protease dimerization” (Medchemcomm, 2014)

What was measured:
Protease [1] = target: T1, Protease (Human immunodeficiency virus 1, UniProt Q9YQ12); experiment: Dimerziation inhibition of HIV1 wild type protease using fluorogenic substrate DABCYL- -abu-SQNYPIVQ-EDANS at pH 4.7 by fluorimetric assay
[2] = Dimerziation inhibition of HIV1 ANAM11 protease mutant using fluorogenic substrate DABCYL- -abu-SQNYPIVQ-EDANS at pH 4.7 by fluorimetric assay; design: species or system Human immunodeficiency virus 1
[3] = Retention time of the compound; type: physicochemical
[4] = target: Protease (Human immunodeficiency virus 1) (UniProt Q9YQ12); experiment: Competitive inhibition of HIV1 protease using fluorogenic substrate DABCYL- -abu-SQNYPIVQ-EDANS assessed as dissociation for dimer-inhibitor complex at 28 uM at pH 4.7 by fluorimetric assay
Protease [5] = target: T1, Protease; experiment: Competitive inhibition of HIV1 protease using fluorogenic substrate DABCYL- -abu-SQNYPIVQ-EDANS assessed as dissociation for dimer-inhibitor complex at pH 4.7 by fluorimetric assay
[6] = Metabolic stability in Roswell park memorial institute medium containing 20% fetal calf serum assessed as degradation after 48 hrs by HPLC analysis; type: ADME; settings: cattle

Retention_time [3] [min]	inhibition [4] [%]	Ki (Protease [5]) [nM]	Structure (SMILES)	Ki (Protease [1]) [nM]	Ki [2] [nM]	Stability [6]
11.4	0		COc1ccc(NC(C)=O)cc1C(=O)NNC(=O)[C@H](CCCCNC(=O)CCCOc1ccc2cc(CCCN(C)C)c(OCCCC(=O)NCCCC[C@H](NC(=O)OC(C)(C)C)C(=O)NNC(=O)c3cc(NC(C)=O)ccc3OC)cc2c1)NC(=O)OC(C)(C)C			
15.2			COc1ccc(NC(C)=O)cc1C(=O)NNC(=O)[C@H](CCCCNC(=O)CCCOc1ccc2cc(NCC3COC(C)(C)O3)c(OCCCC(=O)NCCCC[C@H](NC(=O)OC(C)(C)C)C(=O)NNC(=O)c3cc(NC(C)=O)ccc3OC)cc2c1)NC(=O)OC(C)(C)C (some centres not stated)	5900		
13.8	0		COc1ccc(NC(C)=O)cc1C(=O)NNC(=O)[C@H](CCCCNC(=O)CCCOc1ccc2cc(NC(=O)CN3CCN(C(=O)OCc4ccccc4)CC3)c(OCCCC(=O)NCCCC[C@H](NC(=O)OC(C)(C)C)C(=O)NNC(=O)c3cc(NC(C)=O)ccc3OC)cc2c1)NC(=O)OC(C)(C)C			
11.2		15000	COc1ccc(NC(C)=O)cc1C(=O)NNC(=O)[C@H](CCCCNC(=O)CCCOc1ccc2cc(CNC(=N)N)c(OCCCC(=O)NCCCC[C@H](NC(=O)OC(C)(C)C)C(=O)NNC(=O)c3cc(NC(C)=O)ccc3OC)cc2c1)NC(=O)OC(C)(C)C			
11.2	18		COc1ccc(NC(C)=O)cc1C(=O)NNC(=O)[C@H](CCCCNC(=O)CCCOc1ccc2cc(NC(=O)CN3CCNCC3)c(OCCCC(=O)NCCCC[C@H](NC(=O)OC(C)(C)C)C(=O)NNC(=O)c3cc(NC(C)=O)ccc3OC)cc2c1)NC(=O)OC(C)(C)C			
12.7			COc1ccc(NC(C)=O)cc1C(=O)NNC(=O)[C@H](CCCCNC(=O)CCCOc1ccc2cc(NCC(O)CO)c(OCCCC(=O)NCCCC[C@H](NC(=O)OC(C)(C)C)C(=O)NNC(=O)c3cc(NC(C)=O)ccc3OC)cc2c1)NC(=O)OC(C)(C)C (some centres not stated)	2750		
13.8			COc1ccc(NC(C)=O)cc1C(=O)NNC(=O)[C@@H](NC(=O)CCCOc1ccc2ccc(OCCCC(=O)N[C@H](C(=O)NNC(=O)c3cc(NC(C)=O)ccc3OC)C(C)C)cc2c1)C(C)C	220		
11.4	35		COc1ccc(NC(C)=O)cc1C(=O)NNC(=O)[C@H](CCCCNC(=O)CCCOc1ccc2cc(CCCN)c(OCCCC(=O)NCCCC[C@H](NC(=O)OC(C)(C)C)C(=O)NNC(=O)c3cc(NC(C)=O)ccc3OC)cc2c1)NC(=O)OC(C)(C)C			
11.1	18		CNCC(=O)Nc1cc2ccc(OCCCC(=O)NCCCC[C@H](NC(=O)OC(C)(C)C)C(=O)NNC(=O)c3cc(NC(C)=O)ccc3OC)cc2cc1OCCCC(=O)NCCCC[C@H](NC(=O)OC(C)(C)C)C(=O)NNC(=O)c1cc(NC(C)=O)ccc1OC			
14.2			COc1ccc(NC(C)=O)cc1C(=O)NNC(=O)[C@@H](NC(=O)CCCOc1ccc2cc(NCC3COC(C)(C)O3)c(OCCCC(=O)N[C@H](C(=O)NNC(=O)c3cc(NC(C)=O)ccc3OC)C(C)C)cc2c1)C(C)C (some centres not stated)	2700		

Structure (SMILES)	Retention_time [3] [min]	inhibition [4] [%]	Ki (Protease [5]) [nM]	Ki (Protease [1]) [nM]	Ki [2] [nM]	Stability [6]
COc1ccc(NC(C)=O)cc1C(=O)NNC(=O)[C@H](CCCCNC(=O)CCCOc1ccc2ccc(OCCCC(=O)NCCCC[C@H](NC(=O)OC(C)(C)C)C(=O)NNC(=O)c3cc(NC(C)=O)ccc3OC)cc2c1)NC(=O)OC(C)(C)C	14.8			280	2000	
COc1ccc(NC(C)=O)cc1C(=O)NNC(=O)[C@@H](NC(=O)CCCOc1ccc2cc(N)c(OCCCC(=O)N[C@H](C(=O)NNC(=O)c3cc(NC(C)=O)ccc3OC)C(C)C)cc2c1)C(C)C	10.6			400	940	
COc1ccc(NC(C)=O)cc1C(=O)NNC(=O)[C@@H](NC(=O)CCCOc1ccc2cc(NCC(O)CO)c(OCCCC(=O)N[C@H](C(=O)NNC(=O)c3cc(NC(C)=O)ccc3OC)C(C)C)cc2c1)C(C)C (some centres not stated)	11.3			600	940	Stable
COc1ccc(NC(C)=O)cc1C(=O)NNC(=O)[C@H](CCCCNC(=O)CCCOc1ccc2cc(N)c(OCCCC(=O)NCCCC[C@H](NC(=O)OC(C)(C)C)C(=O)NNC(=O)c3cc(NC(C)=O)ccc3OC)cc2c1)NC(=O)OC(C)(C)C	12.2			550	830	Stable
COc1ccc(NC(C)=O)cc1C(=O)NNC(=O)[C@H](CCCCNC(=O)CCCOc1ccc2cc(CN)c(OCCCC(=O)NCCCC[C@H](NC(=O)OC(C)(C)C)C(=O)NNC(=O)c3cc(NC(C)=O)ccc3OC)cc2c1)NC(=O)OC(C)(C)C	11.1			300	2450	
